The values below come from US8912169B2, “Beta-lactamase inhibitors” (VenatoRx Pharmaceuticals, Inc., priority 2012, dated 2014).

For experiment [1], the target named is T1, KPC-2 (Klebsiella pneumoniae, UniProt Q9F663).
T1 construct: made in house; host or cells: E. coli BL21(DE3)
As to the kind of experiment: β-lactamase enzyme inhibition, KPC-2. It is filed as biochemical. The settings on record: substrate imipenem, 300 nm; read-out: Class A KPC-2 IC50. The procedure, abridged:
(§1)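 Native untagged β-lactamases expressed in E. coli BL21(DE3) and purified, then pre-incubated with inhibitor 15 min at 37 °C. Hydrolysis was followed by absorbance: 100 μM nitrocefin at 486 nm for p99 AmpC and OXA-1; imipenem at 300 nm for KPC-2; cefotaxime at 260 nm for SHV-5. IC50 from initial-rate inhibition versus uninhibited controls.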

The test system of experiment [2] is E. coli ESBL4 CTX-M-15. The experiment is described as follows: broth microdilution MIC, E. coli CTX-M-15. The settings on record: Fixed CAZ 4 μg/mL. Type of experiment: cell-based. The text has this:
(§2) To determine the ability of test compounds to potentiate the inhibition of the growth of bacterial strains that produce beta-lactamase enzymes, classic cell based broth microdilution MIC assays were employed. Six bacteria strains producing beta-lactamase enzymes were used: E. coli expressing the Class A Extended Spectrum Beta-Lactamase (ESBL) CTX-M-15, E. cloacae expressing the Class C P99, K. pneumoniae expressing the Class A carbapenemase KPC-3, P. aeruginosa expressing the Class B carbapenemase VIM-2, K. pneumoniae expressing the class A carbapenemase KPC-2 and the class B carbapenemase VIM-4, and S. aureus producing the Class A penicillinase PC-1. The assay was conducted in Cation Adjusted Mueller Hinton Broth (CAMHB, BD #212322, BD Diagnostic Systems, Sparks, Md.). Bacteria strains were grown for 3-5 hours in CAMBH broth. Test compounds were added to a microtiter plate in 2-fold serial dilutions in CAMHB in a final concentration range of 32 μg/mL to 0.25 μg/ml. An overlay of CAMHB containing a Beta-lactam was added to the compounds at a final static concentration of 4 μg/ml. […] In addition to the titration of test compounds the MICs of a panel of control beta-lactams is also tested to ensure the strains are behaving consistently from test to test. Once the test compound and antibiotics are added the plates can be inoculated according to CLSI broth microdilution method. After inoculation the plates are incubated for 16-20 hours at 37° C. then the Minimal Inhibitory Concentration (MIC) of the test compound is determined visually.
(§3) Using the methodology described above in EXAMPLE III, exemplary compounds for Formula I or Formula Ia were evaluated for their ability to inhibit the growth of β-lactamase producing bacteria in the presence of a β-lactam antibiotic. […]

For experiment [3], the system named is E. cl. 144200 p99 AmpC. As to the kind of experiment: broth microdilution MIC, E. cloacae P99. Type of experiment: cell-based. The settings on record: Fixed CAZ 4 μg/mL.
Text: as §2, §3
In general terms: Broth dilution looks for growth in wells or tubes with falling amounts of substance.

In experiment [4] the test system is P. aerug. Ps296 VIM-2. The experiment is described as follows: broth microdilution MIC, P. aeruginosa VIM-2. It is filed as cell-based. The settings on record: Fixed Mero 4 μg/mL.
Text: as §2
Using the methodology described above in EXAMPLE III, exemplary compounds for Formula I or Formula Ia were evaluated for their ability to inhibit the growth of β-lactamase producing bacteria in the presence of a β-lactam antibiotic.
Representative results are shown in Table 4 where A represents an MIC of the fixed β-lactam antibiotic in the presence of >32 μg/mL of a β-lactamase inhibitor of exemplary compounds, B represents the MIC in the presence of between 8 and 32 μg/mL of a β-lactamase inhibitor of exemplary compounds, and C represents the MIC in the presence of ≦4 μg/mL of a β-lactamase inhibitor of exemplary compounds. NT=Not Tested.

Experiment [5] addresses T2, OXA-1 (Escherichia coli, UniProt P13661).
T2 construct: made in house; host or cells: E. coli BL21(DE3)
As to the kind of experiment: β-lactamase enzyme inhibition, OXA-1. Type of experiment: biochemical. The settings on record: substrate Nitrocefin 100 μM, 486 nm; read-out: Class D OXA-1 IC50. The method, boiled down: as §1

For experiment [6], the target named is T3, p99 AmpC (Enterobacter cloacae, UniProt P05364).
T3 construct: made in house; host or cells: E. coli BL21(DE3)
The experiment is described as follows: β-lactamase enzyme inhibition, p99 AmpC. It is filed as biochemical. The settings on record: substrate Nitrocefin 100 μM, 486 nm; read-out: Class C AmpC IC50. The procedure, abridged: as §1

Experiment [7] deals with K.P. 156319 KPC-3. As to the kind of experiment: broth microdilution MIC, K. pneumoniae KPC-3. Type of experiment: cell-based. The settings on record: Fixed Mero 4 μg/mL.
Text: as §2, §3

Experiment [8] deals with K.P. A-1797 KPC-2 VIM-4. The experiment is described as follows: broth microdilution MIC, K. pneumoniae KPC-2 and VIM-4. It is filed as cell-based. The settings on record: Fixed Mero 4 μg/mL.
Text: as §2, §3

The target in experiment [9] is T4, VIM-2 (Escherichia coli, UniProt Q5U7L7).
T4 construct: made in house; host or cells: E. coli BL21(DE3)
The experiment is described as follows: β-lactamase enzyme inhibition, VIM-2. Type of experiment: biochemical. The settings on record: substrate Nitrocefin 100 μM, 486 nm; read-out: Class B VIM-2 IC50. The method, boiled down:
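Purified VIM-2 (Q sepharose, 50 mM Hepes pH 7.5, >90% purity) preincubated with inhibitor 15 min at 37° C, then nitrocefin added at 100 μM final. Hydrolysis followed at 486 nm for 10 min; IC50 from initial rates versus inhibitor-free control wells.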

For experiment [10], the target named is T5, SHV-5 (Klebsiella pneumoniae, UniProt P0A3M1).
T5 construct: made in house; host or cells: E. coli BL21(DE3)
As to the kind of experiment: β-lactamase enzyme inhibition, SHV-5. It is filed as biochemical. The settings on record: substrate Cefotaxime, 260 nm; read-out: Class A SHV-5 IC50. The method, boiled down: as §1

For the substance “(3R)-3-[[2-[(1S,3S,4S)-3,4-bis(aminomethyl)cyclohexyl]acetyl]amino]-2-hydroxy-3,4-dihydro-1,2-benzoxaborinine-8-carboxylic acid and (3R)-3-[[2-[(1R,3R,4R)-3,4-bis(aminomethyl)cyclohexyl]acetyl]amino]-2-hydroxy-3,4-dihydro-1,2-benzoxaborinine-8-carboxylic acid [Example 18]”, the half-inhibitory concentration (IC50) in [1], in [5], in experiment [6], in experiment [9] and in [10] was less than 100 nM each time. Moreover, the “MIC of exemplary compounds in presence of fixed β-lactams, E. coli ESBL4 CTX-M-15” value (from here on “MIC … E. coli ESBL4 CTX-M-15”) in experiment [2] is recorded as “C (C represents the MIC in the presence of ≦4 μg/mL of a β-lactamase inhibitor of exemplary compounds)”. Further, in experiment [3], the “MIC of exemplary compounds in presence of fixed β-lactams, E. cl. 144200 p99 AmpC” value (shortened to “MIC … E. cl. 144200 p99 AmpC”) was “C (C represents the MIC in the presence of ≦4 μg/mL of a β-lactamase inhibitor of exemplary compounds)”. Also, the “MIC of exemplary compounds in presence of fixed β-lactams, P. aerug. Ps296 VIM-2” value (“MIC … P. aerug. Ps296 VIM-2” below) in experiment [4] is “C (C represents the MIC in the presence of ≦4 μg/mL of a β-lactamase inhibitor of exemplary compounds)”. Further, in experiment [7], the “MIC of exemplary compounds in presence of fixed β-lactams, K.P. 156319 KPC-3” value (“MIC of exemplary compounds … K.P. 156319 KPC-3” for short) is on record as “C (C represents the MIC in the presence of ≦4 μg/mL of a β-lactamase inhibitor of exemplary compounds)”. Besides, the “MIC of exemplary compounds in presence of fixed β-lactams, K.P. A-1797 KPC-2 VIM-4” value (shortened to “MIC … K.P. A-1797 KPC-2 VIM-4”) in [8] was “B (B represents the MIC in the presence of between 8 and 32 μg/mL of a β-lactamase inhibitor of exemplary compounds)”.
Turning to “(3R)-3-[[(1S,3S,4S)-3,4-diaminocyclohexanecarbonyl]amino]-2-hydroxy-3,4-dihydro-1,2-benzoxaborinine-8-carboxylic acid and (3R)-3-[[(1R,3R,4R)-3,4-diaminocyclohexanecarbonyl]amino]-2-hydroxy-3,4-dihydro-1,2-benzoxaborinine-8-carboxylic acid [Example 20]”, the IC50 in experiment [1] is 100 to 1000 nM; in [5] it was 100 to 1000 nM; in experiment [6] it was less than 100 nM; in [9], less than 100 nM; in experiment [10], 1000 to 10000 nM. For the same substance, the “MIC … E. coli ESBL4 CTX-M-15” value in experiment [2] is “C (C represents the MIC in the presence of ≦4 μg/mL of a β-lactamase inhibitor of exemplary compounds)”. The “MIC … E. cl. 144200 p99 AmpC” value in [3] was “C (C represents the MIC in the presence of ≦4 μg/mL of a β-lactamase inhibitor of exemplary compounds)”. Moreover, the “MIC … P. aerug. Ps296 VIM-2” value in [4] is recorded as “C (C represents the MIC in the presence of ≦4 μg/mL of a β-lactamase inhibitor of exemplary compounds)”. Moreover, the “MIC of exemplary compounds … K.P. 156319 KPC-3” value in experiment [7] was “C (C represents the MIC in the presence of ≦4 μg/mL of a β-lactamase inhibitor of exemplary compounds)”. For the same substance, the “MIC … K.P. A-1797 KPC-2 VIM-4” value in [8] was “B (B represents the MIC in the presence of between 8 and 32 μg/mL of a β-lactamase inhibitor of exemplary compounds)”.
Consider “(3R)-3-[[(3S,4S)-3,4-diaminocyclopentanecarbonyl]amino]-2-hydroxy-3,4-dihydro-1,2-benzoxaborinine-8-carboxylic acid and (3R)-3-[[(3R,4R)-3,4-diaminocyclopentanecarbonyl]amino]-2-hydroxy-3,4-dihydro-1,2-benzoxaborinine-8-carboxylic acid [Example 19]”, for which the half-inhibitory concentration (IC50) in [1] is less than 100 nM; in experiment [5], less than 100 nM; in [6], less than 100 nM; in experiment [9], less than 100 nM; in experiment [10] it was 100 to 1000 nM. Also, the “MIC … E. coli ESBL4 CTX-M-15” value in [2] is “C (C represents the MIC in the presence of ≦4 μg/mL of a β-lactamase inhibitor of exemplary compounds)”. In addition, the “MIC … E. cl. 144200 p99 AmpC” value in experiment [3] was “C (C represents the MIC in the presence of ≦4 μg/mL of a β-lactamase inhibitor of exemplary compounds)”. The “MIC … P. aerug. Ps296 VIM-2” value in [4] is listed as “C (C represents the MIC in the presence of ≦4 μg/mL of a β-lactamase inhibitor of exemplary compounds)”. The “MIC of exemplary compounds … K.P. 156319 KPC-3” value in experiment [7] is recorded as “C (C represents the MIC in the presence of ≦4 μg/mL of a β-lactamase inhibitor of exemplary compounds)”. In [8], the “MIC … K.P. A-1797 KPC-2 VIM-4” value is “C (C represents the MIC in the presence of ≦4 μg/mL of a β-lactamase inhibitor of exemplary compounds)”.

The term IC50 denotes the concentration that inhibits the measured activity by half.
